Results from PMC10033419, “Blocking NS3–NS4B interaction inhibits dengue virus in non-human primates” (Nature, 2023).
Where “and” joins values, the source holds several entries; their conditions need not be identical. Equal values may be shown once. Read-outs that look alike come from different tables or passages of the source.

Assays:
DENV-2 Asian I Thailand = assay type: cell-based; settings: T108I in NS4B
DENV-2 RL strain = experiment: Day 3 viraemia model, high viral inoculum (10^6 PFU); assay type: in vivo, AG129 mice
[1] = both, Indian-origin, rhesus monkey, in vivo, po
[2] = Study 1+2+3 compiled data, 0,2 mg/kg/d, individual animals, listed as 64281802-AAA
[3] = Study 1+2+3 compiled data, 0,6 mg/kg/d, individual animals, listed as 64281802-AAA
[4] = Study 1+2+3 compiled data, 2 mg/kg/d, individual animals, listed as 64281802-AAA, 2 mg/kg/day
[5] = Study 1+2+3 compiled data, 6 mg/kg/d, individual animals, listed as 64281802-AAA, 6 mg/kg/day
[6] = Study 1+2+3 compiled data, 20 mg/kg/d, individual animals, listed as 64281802-AAA, 20 mg/kg/day
[7] = Study 1+2+3 compiled data, 60 mg/kg/d, individual animals, listed as 64281802-AAA, 60 mg/kg/day
[8] = Study 1 - 160222, 2 mg/kg/d, individual animals, listed as 64281802-AAA
[9] = Study 1 - 160222, 6 mg/kg/d, individual animals, listed as 64281802-AAA
[10] = Study 1 - 160222, 60 mg/kg/d, individual animals, listed as 64281802-AAA
[11] = Study 2 - 160510, 0,6 mg/kg/d, individual animals, listed as 64281802-AAA
[12] = Study 2 - 160510, 2 mg/kg/d, individual animals, listed as 64281802-AAA
[13] = Study 2 - 160510, 6 mg/kg/d, individual animals, listed as 64281802-AAA
[14] = Study 2 - 160510, 20 mg/kg/d, individual animals, listed as 64281802-AAA
[15] = Study 3 - 170410, 0,2 mg/kg/d, first group of 8, individual animals, listed as 64281802-AAA
[16] = Study 3 - 170410, 0,2 mg/kg/d, second group of 8, individual animals, listed as 64281802-AAA
[17] = Study 3 - 170410, 0,6 mg/kg/d, individual animals, listed as 64281802-AAA
[18] = Study 3 - 170410, 20 mg/kg/d, individual animals

COc1cc(N[C@H](C(=O)c2c[nH]c3ccc(OC(F)(F)F)cc23)c2ccc(Cl)cc2OC)cc(S(C)(=O)=O)c1 [JNJ-1802]
EC50 (DENV-2 Asian I Thailand): 1.4 ± 0.34 nM | EC90 (DENV-2 Asian I Thailand): 2.78 ± 0.037 nM | viraemia day 3 p.i., average Log 10 (DENV-2 RL strain; 0,3 mg/kg/d q.d.): 6.63 log10 viral RNA copies/mL | viraemia day 3 p.i., median Log 10 (DENV-2 RL strain; 0,3 mg/kg/d q.d.): 6.66 log10 viral RNA copies/mL | viraemia day 3 p.i., average Log 10 (DENV-2 RL strain; 3 mg/kg/d q.d.): 3.84 log10 viral RNA copies/mL | viraemia day 3 p.i., median Log 10 (DENV-2 RL strain; 3 mg/kg/d q.d.): 4.27 log10 viral RNA copies/mL | mice with undetectable viral RNA (DENV-2 RL strain; 20 mg per kg per day b.i.d.): 13 out of 14 | mice with undetectable viral RNA (DENV-2 RL strain; 30 mg per kg q.d.): five out of eight | viraemia day 3 p.i., average Log 10 (DENV-2 RL strain; 30 mg/kg/d q.d.): 3.09 log10 viral RNA copies/mL | viraemia day 3 p.i., median Log 10 (DENV-2 RL strain; 30 mg/kg/d q.d.): 2.59 log10 viral RNA copies/mL | mice with undetectable viral RNA (DENV-2 RL strain; 60 mg per kg per day b.i.d.): four out of seven | Av Log 10 (average) (DENV-2 RL strain; Study 1+2+3 compiled data, 0,2 mg/kg/d, group average): 5.92 | Av Log 10 (Ave/Med: median) (DENV-2 RL strain; Study 1+2+3 compiled data, 0,2 mg/kg/d, group median): 6.05 | Copy number (DENV-2 RL strain; [2]): 1.86E+06 and 1.20E+06 and 1.13E+06 and 8.80E+05 and 2.24E+05 and 2.37E+06 and 1.58E+06 and 7.37E+04 and 5.97E+06 and 8.67E+05 and 1.42E+06 and 1.06E+06 and 9.43E+04 | Log 10 (copy number) (DENV-2 RL strain; [2]): 6.27 and 6.08 and 6.05 and 5.94 and 5.35 and 6.38 and 6.20 and 4.87 and 6.78 and 6.15 and 6.03 and 4.97 | Av Log 10 (average) (DENV-2 RL strain; Study 1+2+3 compiled data, 0,6 mg/kg/d, group average): 4.22 | Av Log 10 (Ave/Med: median) (DENV-2 RL strain; Study 1+2+3 compiled data, 0,6 mg/kg/d, group median): 4.52 | Copy number (DENV-2 RL strain; [3]): 3.93E+02 | Log 10 (copy number) (DENV-2 RL strain; [3]): 2.59 | Av Log 10 (average) (DENV-2 RL strain; Study 1+2+3 compiled data, 2 mg/kg/d, group average): 4.68 | Av Log 10 (Ave/Med: median) (DENV-2 RL strain; Study 1+2+3 compiled data, 2 mg/kg/d, group median): 4.60 | Copy number (DENV-2 RL strain; [4]): 8.93E+05 and 4.00E+05 and 3.96E+05 and 1.24E+06 and 6.51E+05 and 1.32E+04 and 2.02E+05 and 2.06E+04 | Log 10 (copy number) (DENV-2 RL strain; [4]): 5.95 and 5.60 and 6.09 and 5.81 and 3.95 | Av Log 10 (average) (DENV-2 RL strain; Study 1+2+3 compiled data, 6 mg/kg/d, group average): 4.33 | Av Log 10 (Ave/Med: median) (DENV-2 RL strain; Study 1+2+3 compiled data, 6 mg/kg/d, group median): 4.37 | Copy number (DENV-2 RL strain; [5]): 5.85E+04 and 1.40E+05 and 1.03E+05 and 2.15E+04 and 1.94E+05 and 8.27E+04 and 1.06E+04 and 2.60E+04 and 9.12E+03 and 5.17E+03 and 3.62E+04 and 5.97E+03 and 3.93E+02 | Log 10 (copy number) (DENV-2 RL strain; [5]): 4.77 and 5.15 and 5.01 and 4.33 and 5.29 and 4.92 and 4.03 and 4.41 and 3.96 and 3.71 and 4.56 and 4.11 and 3.78 and 2.59 | Av Log 10 (average) (DENV-2 RL strain; Study 1+2+3 compiled data, 20 mg/kg/d, group average): 2.70 | Av Log 10 (Ave/Med: median) (DENV-2 RL strain; Study 1+2+3 compiled data, 20 mg/kg/d, group median): 2.59 | Copy number (DENV-2 RL strain; [6]): 1.05E+04 and 3.93E+02 | Log 10 (copy number) (DENV-2 RL strain; [6]): 4.02 and 2.59 | Av Log 10 (average) (DENV-2 RL strain; Study 1+2+3 compiled data, 60 mg/kg/d, group average): 3.05 | Av Log 10 (Ave/Med: median) (DENV-2 RL strain; Study 1+2+3 compiled data, 60 mg/kg/d, group median): 2.59 | Copy number (DENV-2 RL strain; [7]): 3.93E+02 and 1.22E+04 and 1.55E+03 and 5.28E+03 | Log 10 (copy number) (DENV-2 RL strain; [7]): 2.59 and 4.09 and 3.19 and 3.72 | Av Log 10 (average) (DENV-2 RL strain; Study 1 - 160222, 2 mg/kg/d, group average): 5.30 | Av Log 10 (Ave/Med: median) (DENV-2 RL strain; Study 1 - 160222, 2 mg/kg/d, group median): 5.60 | Copy number (DENV-2 RL strain; [8]): 8.93E+05 and 4.00E+05 and 3.96E+05 and 1.24E+06 and 6.51E+05 and 1.32E+04 and 2.02E+05 | Log 10 (copy number) (DENV-2 RL strain; [8]): 5.95 and 5.60 and 6.09 and 5.81 and 3.95 and 4.12 and 5.30 | Av Log 10 (average) (DENV-2 RL strain; Study 1 - 160222, 6 mg/kg/d, group average): 4.74 | Av Log 10 (Ave/Med: median) (DENV-2 RL strain; Study 1 - 160222, 6 mg/kg/d, group median): 4.84 | Copy number (DENV-2 RL strain; [9]): 5.85E+04 and 1.40E+05 and 1.03E+05 and 2.15E+04 and 1.94E+05 and 8.27E+04 and 1.06E+04 and 2.60E+04 | Log 10 (copy number) (DENV-2 RL strain; [9]): 4.77 and 5.15 and 5.01 and 4.33 and 5.29 and 4.92 and 4.03 and 4.41 | Av Log 10 (average) (DENV-2 RL strain; Study 1 - 160222, 60 mg/kg/d, group average): 3.05 | Av Log 10 (Ave/Med: median) (DENV-2 RL strain; Study 1 - 160222, 60 mg/kg/d, group median): 2.59 | Copy number (DENV-2 RL strain; [10]): 3.93E+02 and 1.22E+04 and 1.55E+03 and 5.28E+03 | Log 10 (copy number) (DENV-2 RL strain; [10]): 2.59 and 4.09 and 3.19 and 3.72 | Av Log 10 (average) (DENV-2 RL strain; Study 2 - 160510, 0,6 mg/kg/d, group average): 4.52 | Av Log 10 (Ave/Med: median) (DENV-2 RL strain; Study 2 - 160510, 0,6 mg/kg/d, group median): 4.66 | Copy number (DENV-2 RL strain; [11]): 3.02E+04 and 4.20E+05 and 7.57E+04 and 6.60E+04 and 3.93E+02 and 1.74E+04 and 1.01E+05 and 3.12E+04 | Log 10 (copy number) (DENV-2 RL strain; [11]): 4.48 and 5.62 and 4.88 and 4.82 and 2.59 and 4.24 and 5.00 and 4.49 | Av Log 10 (average) (DENV-2 RL strain; Study 2 - 160510, 2 mg/kg/d, group average): 4.07 | Av Log 10 (Ave/Med: median) (DENV-2 RL strain; Study 2 - 160510, 2 mg/kg/d, group median): 4.30 | Copy number (DENV-2 RL strain; [12]): 2.06E+04 and 6.20E+04 and 1.87E+04 and 2.60E+04 and 3.93E+02 and 1.87E+05 | Log 10 (copy number) (DENV-2 RL strain; [12]): 4.31 and 4.28 and 4.79 and 4.27 and 4.41 and 2.59 and 5.27 | Av Log 10 (average) (DENV-2 RL strain; Study 2 - 160510, 6 mg/kg/d, group average): 3.78 | Av Log 10 (Ave/Med: median) (DENV-2 RL strain; Study 2 - 160510, 6 mg/kg/d, group median): 3.87 | Copy number (DENV-2 RL strain; [13]): 9.12E+03 and 5.17E+03 and 3.62E+04 and 5.97E+03 and 3.93E+02 | Log 10 (copy number) (DENV-2 RL strain; [13]): 3.96 and 3.71 and 4.56 and 4.11 and 3.78 and 2.59 | Av Log 10 (average) (DENV-2 RL strain; Study 2 - 160510, 20 mg/kg/d, group average): 2.83 | Av Log 10 (Ave/Med: median) (DENV-2 RL strain; Study 2 - 160510, 20 mg/kg/d, group median): 2.59 | Copy number (DENV-2 RL strain; [14]): 1.05E+04 and 3.93E+02 | Log 10 (copy number) (DENV-2 RL strain; [14]): 4.02 and 2.59 | Av Log 10 (average) (DENV-2 RL strain; Study 3 - 170410, 0,2 mg/kg/d, first group of 8, group average): 6.01 | Av Log 10 (Ave/Med: median) (DENV-2 RL strain; Study 3 - 170410, 0,2 mg/kg/d, first group of 8, group median): 6.07 | Copy number (DENV-2 RL strain; [15]): 1.86E+06 and 1.20E+06 and 1.13E+06 and 8.80E+05 and 2.24E+05 and 2.37E+06 | Log 10 (copy number) (DENV-2 RL strain; [15]): 6.27 and 6.08 and 6.05 and 5.94 and 5.35 and 6.38 | Av Log 10 (average) (DENV-2 RL strain; Study 3 - 170410, 0,2 mg/kg/d, second group of 8, group average): 5.85 | Av Log 10 (Ave/Med: median) (DENV-2 RL strain; Study 3 - 170410, 0,2 mg/kg/d, second group of 8, group median): 6.03 | Copy number (DENV-2 RL strain; [16]): 1.58E+06 and 7.37E+04 and 5.97E+06 and 8.67E+05 and 1.42E+06 and 1.06E+06 and 9.43E+04 | Log 10 (copy number) (DENV-2 RL strain; [16]): 6.20 and 4.87 and 6.78 and 5.94 and 6.15 and 6.03 and 4.97 | Av Log 10 (average) (DENV-2 RL strain; Study 3 - 170410, 0,6 mg/kg/d, group average): 3.92 | Av Log 10 (Ave/Med: median) (DENV-2 RL strain; Study 3 - 170410, 0,6 mg/kg/d, group median): 4.48 | Copy number (DENV-2 RL strain; [17]): 3.45E+04 and 2.62E+04 and 3.90E+04 and 3.93E+02 | Log 10 (copy number) (DENV-2 RL strain; [17]): 5.16 and 4.86 and 4.54 and 4.42 and 4.59 and 2.59 | Av Log 10 (average) (DENV-2 RL strain; Study 3 - 170410, 20 mg/kg/d, group average): 2.59 | Av Log 10 (Ave/Med: median) (DENV-2 RL strain; Study 3 - 170410, 20 mg/kg/d, group median): 2.59 | Copy number (DENV-2 RL strain; [18]): 3.93E+02 | Log 10 (copy number) (DENV-2 RL strain; [18]): 2.59 | Copy number (DENV-2 RL strain; mouse, in vivo, 6 mg/kg/day): 1.28E+04 | Tmax ([1]; 0.01 mg/kg): 24 h | Cmax ([1]; 0.18 mg/kg): 25.3 ± 6.7 ng/mL | Tmax ([1]; 3 mg/kg): up to 24 h
